Measured values published in patent US20240083903A1, “ARYL ETHER COMPOUNDS AS TEAD MODULATORS” (Merck Sharp& Dohme LLC, priority 2021, published 2024).

System: TEAD Reporter-MCF7 cell line
Experiment: YAP/TEAD cellular activity assay: inhibition of TEAD-Luc activity in TEAD Reporter-MCF7 cell line
Type: cell-based, human
Settings: TEAD Reporter-MCF7 cells, 24 hours incubation with compound, luciferase readout
Method in brief: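 MCF7 cells stably carrying a TEAD-responsive firefly luciferase reporter were seeded at 10,000 cells/well, grown 20-24 h, then exposed to compounds for 24 h at 37° C. Luciferase read by ONE-Glo EX luminescence; percent inhibition and EC50 derived.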

SMILES | EC50 (Homo sapiens, MCF7, 24 h) [nM] | EC50 [nM]
CNS(=O)(=O)c1ccc(Oc2ccc(C(F)(F)F)cc2)c(-c2cc3ncccn3n2)c1 [1-19, N-methyl-3-(pyrazolo[1,5-a]pyrimidin-2-yl)-4-[4-(trifluoromethyl)phenoxy]benzene-1-sulfonamide] | 60.6 | –
CCc1cccc(Oc2ccc(S(=O)(=O)NC)cc2-c2cn3c(n2)CCC3)c1 [4-10, 3-(6,7-dihydro-5H-pyrrolo [1,2-a]imidazol-2-yl)-4-(3-ethylphenoxy)-N-methylbenzene-1-sulfonamide] | 21.6 | –
CNS(=O)(=O)c1ccc(Oc2ccc(C(F)(F)F)cc2)c(-c2cn3cccc(C)c3n2)c1 [1-33, N-methyl-3-(8-methylimidazo[1,2-a]pyridin-2-yl)-4-[4-(trifluoromethyl)phenoxy]benzene-1-sulfonamide] | 236 | –
CNS(=O)(=O)c1ccc(Oc2ccc(C(F)(F)F)cc2)c(-c2ccc3[nH]c(=O)[nH]c3c2)c1 [2-5, N-methyl-3-(2-oxo-2,3-dihydro-1H-benzimidazol-5-yl)-4-[4-(trifluoromethyl)phenoxy]benzene-1-sulfonamide] | 4540 | –
CNS(=O)(=O)c1ccc(Oc2ccc(C(F)(F)F)cc2)c(-c2cccc3cnccc23)c1 [2-20, 3-(isoquinolin-5-yl)-N-methyl-4-[4-(trifluoromethyl)phenoxy]benzene-1-sulfonamide] | 4780 | –
CNS(=O)(=O)c1ccc(Oc2ccc(C(F)(F)F)cc2)c(-c2cnc3[nH]ccc3c2)c1 [2-10, N-methyl-3-(1H-pyrrolo[2,3-b]pyridin-5-yl)-4-[4-(trifluoromethyl)phenoxy]benzene-1-sulfonamide] | 2420 | –
CNS(=O)(=O)c1ccc(Oc2ccc3c(c2)CCC3)c(-c2cn3c(n2)CCC3)c1 [4-4, 4-[(2,3-dihydro-1H-inden-5-yl)oxy]-3-(6,7-dihydro-5H-pyrrolo[1,2-a]imidazol-2-yl)-N-methylbenzene-1-sulfonamide] | 32.3 | –
CNS(=O)(=O)c1ccc(Oc2ccc(C(F)(F)F)cc2)c(-c2cn3c(n2)C(O)CC3)c1 (centres unmarked) [9-1, 3-(7-Hydroxy-6,7-dihydro-5H-pyrrolo[1,2-a]imidazol-2-yl)-N-methyl-4-(4-(trifluoromethyl)phenoxy)benzenesulfonamide] | 907 | –
CNS(=O)(=O)c1ccc(Oc2ccc(C(F)(F)F)cc2)c(-c2cnn3c2CCCC3)c1 [2-16, N-methyl-3-(4,5,6,7-tetrahydropyrazolo[1,5-a]pyridin-3-yl)-4-[4-(trifluoromethyl)phenoxy]benzene-1-sulfonamide] | 631 | –
CNS(=O)(=O)c1ccc(Oc2ccc(C(F)(F)F)cc2)c(-c2cccc3c2OCC(=O)N3)c1 [2-26, N-methyl-3-(3-oxo-3,4-dihydro-2H-1,4-benzoxazin-8-yl)-4-[4-(trifluoromethyl)phenoxy]benzene-1-sulfonamide] | 3180 | –
CNS(=O)(=O)c1ccc(Oc2ccc(C(F)(F)F)cc2)c(-c2cn3c(n2)OC(C)C3)c1 (single isomer, unassigned) [1-38, (R)- or (S)-N-methyl-3-(2-methyl-2,3-dihydroimidazo[2,1-b] [1,3]oxazol-6-yl)-4-[4-(trifluoromethyl)phenoxy]benzene-1-sulfonamide] | – | 28.4
CNS(=O)(=O)c1ccc(Oc2ccc(C(F)(F)F)cc2)c(-c2ncc3cnccn23)c1 [1-7, 3-(imidazo[1,5-a]pyrazin-3-yl)-N-methyl-4-[4-(trifluoromethyl)phenoxy]benzene-1-sulfonamide] | 5350 | –
CNS(=O)(=O)c1ccc(Oc2ccc(C(F)(F)F)cc2)c(-c2cnc3c(C)cccn23)c1 [1-4, N-Methyl-3-(8-methylimidazo[1,2-a]pyridin-3-yl)-4-(4-(trifluoromethyl)phenoxy)benzenesulfonamide] | 6030 | –
CNS(=O)(=O)c1ccc(Oc2ccc(C(F)(F)F)cc2)c(-c2[nH]nc3ccccc23)c1 [1-8, 3-(2H-indazol-3-yl)-N-methyl-4-[4-(trifluoromethyl)phenoxy]benzene-1-sulfonamide] | 2870 | –
CNS(=O)(=O)c1ccc(Oc2ccc(C(F)(F)F)cc2)c(-c2nc3ncccn3n2)c1 [1-10, N-methyl-3-([1,2,4]triazolo[1,5-a]pyrimidin-2-yl)-4-[4-(trifluoromethyl)phenoxy]benzene-1-sulfonamide] | 454 | –
CNS(=O)(=O)c1ccc(Oc2ccc(C(F)(F)F)cc2)c(-c2cnn3c2CCC3)c1 [1-5, 3-(5,6-dihydro-4H-pyrrolo[1,2-b]pyrazol-3-yl)-N-methyl-4-[4-(trifluoromethyl)phenoxy]benzene-1-sulfonamide] | 106 | –
CNS(=O)(=O)c1ccc(Oc2ccc(C(F)(F)F)nc2)c(-c2cn3c(n2)CCC3)c1 [4-2, 3-(6,7-dihydro-5H-pyrrolo[1,2-a]imidazol-2-yl)-N-methyl-4-((6-(trifluoromethyl)pyridin-3-yl)oxy)benzenesulfonamide] | 261 | –
CNS(=O)(=O)c1ccc(Oc2ccc(C(F)(F)F)cc2)c(-c2ccc3c(c2)CC(=O)N3)c1 [2-4, N-methyl-3-(2-oxo-2,3-dihydro-1H-indol-5-yl)-4-[4-(trifluoromethyl)phenoxy]benzene-1-sulfonamide] | 5480 | –

SMILES | EC50 (Homo sapiens, MCF7, 24 h) [nM] | EC50 [nM]
CNS(=O)(=O)c1ccc(Oc2ccc(C(F)(F)F)cc2)c(-n2cc3c(n2)CCC3)c1 [6-2, 3-(5,6-dihydrocyclopenta[c]pyrazol-2(4H)-yl)-N-methyl-4-[4-(trifluoromethyl)phenoxy]benzene-1-sulfonamide] | 68.5 | –
CNS(=O)(=O)c1ccc(Oc2ccc(F)cc2)c(-c2cnn3c2OCC3)c1 [1-46, 3-(2,3-dihydropyrazolo[5,1-b]oxazol-7-yl)-4-(4-fluorophenoxy)-N-methylbenzenesulfonamide] | 1860 | –
CNS(=O)(=O)c1ccc(Oc2ccc(C(F)(F)F)cc2)c(-c2cn3c(n2)C(C)(O)CC3)c1 (centres unmarked) [9-2, 3-(7-Hydroxy-7-methyl-6,7-dihydro-5H-pyrrolo[1,2-a]imidazol-2-yl)-N-methyl-4-(4-(trifluoromethyl)phenoxy)benzenesulfonamide] | 304 | –
CNS(=O)(=O)c1ccc(Oc2ccc(C(F)(F)F)cc2)c(-c2cc3n(n2)CCC3)c1 [1-2, 3-(5,6-Dihydro-4H-pyrrolo[1,2-b]pyrazol-2-yl)-N-methyl-4-(4-(trifluoromethyl)phenoxy)benzenesulfonamide] | 5.1 | –
CNS(=O)(=O)c1ccc(Oc2ccc(C(F)F)cc2)c(-c2cc3n(n2)CCC3)c1 [8-4, 4-[4-(difluoromethyl)phenoxy]-3-(5,6-dihydro-4H-pyrrolo[1,2-b]pyrazol-2-yl)-N-methylbenzene-1-sulfonamide] | 46.6 | –
CNS(=O)(=O)c1ccc(Oc2ccc(C(F)(F)F)cc2)c(-c2ccc3scnc3c2)c1 [2-6, 3-(1,3-benzothiazol-5-yl)-N-methyl-4-[4-(trifluoromethyl)phenoxy]benzene-1-sulfonamide] | 210 | –
CNS(=O)(=O)c1ccc(Oc2ccc(F)cc2)c(-c2cc3n(n2)CCC3)c1 [8-2, 3-(5,6-dihydro-4H-pyrrolo[1,2-b]pyrazol-2-yl)-4-(4-fluorophenoxy)-N-methylbenzene-1-sulfonamide] | 21.5 | –
CNS(=O)(=O)c1ccc(Oc2ccc(C(F)(F)F)cc2)c(-c2cc3n(n2)CCCC3)c1 [1-36, N-methyl-3-(4,5,6,7-tetrahydropyrazolo[1,5-a]pyridin-2-yl)-4-[4-(trifluoromethyl)phenoxy]benzene-1-sulfonamide] | 4.6 | –
CNS(=O)(=O)c1ccc(Oc2ccc(C(C)(C)C)cc2)c(-c2cn3c(n2)CCC3)c1 [4-3, 4-(4-tert-butylphenoxy)-3-(6,7-dihydro-5H-pyrrolo[1,2-a]imidazol-2-yl)-N-methylbenzene-1-sulfonamide] | 5.7 | –
CNS(=O)(=O)c1ccc(Oc2ccc(C(F)(F)F)cc2)c(-c2cnc3ccccn23)c1 [1-20, 3-(imidazo[1,2-a]pyridin-3-yl)-N-methyl-4-[4-(trifluoromethyl)phenoxy]benzene-1-sulfonamide] | 7140 | –
CNS(=O)(=O)c1ccc(Oc2ccc(C(F)(F)F)cc2)c(-c2cn3c(n2)CC(C)C3)c1 (single isomer, unassigned) [1-42, (S)- or (R)-N-methyl-3-(6-methyl-6,7-dihydro-5H-pyrrolo[1,2-a]imidazol-2-yl)-4-[4-(trifluoromethyl)phenoxy]benzene-1-sulfonamide] | – | 6.4
CNS(=O)(=O)c1ccc(Oc2ccc(C)cc2)c(-c2cn3c(n2)CCC3)c1 [4-7, 3-(6,7-dihydro-5H-pyrrolo [1,2-a]imidazol-2-yl)-N-methyl-4-(4-methylphenoxy)benzene-1-sulfonamide] | 23.8 | –
CNS(=O)(=O)c1ccc(Oc2ccc(C(F)(F)F)cc2)c(-c2cnn3c2OCC(C)C3)c1 (centres unmarked) [2-17, N-methyl-3-(6-methyl-6,7-dihydro-5H-pyrazolo[5,1-b][1,3]oxazin-3-yl)-4-[4-(trifluoromethyl)phenoxy]benzene-1-sulfonamide] | 590 | –
CNS(=O)(=O)c1ccc(Oc2ccc(C(F)(F)F)cc2)c(-c2cc3n(n2)CCN3)c1 [1-45, 3-(2,3-dihydro-1H-imidazo[1,2-b]pyrazol-6-yl)-N-methyl-4-[4-(trifluoromethyl)phenoxy]benzene-1-sulfonamide] | 64.4 | –
CNS(=O)(=O)c1ccc(Oc2ccc(C(F)(F)F)cc2)c(-c2cn3ccccc3n2)c1 [1-27, 3-(imidazo[1,2-a]pyridin-2-yl)-N-methyl-4-[4-(trifluoromethyl)phenoxy]benzene-1-sulfonamide] | 28.4 | –
CNS(=O)(=O)c1ccc(Oc2ccc(C(F)(F)F)cc2)c(-c2cn3ccc(F)cc3n2)c1 [1-32, 3-(7-fluoroimidazo[1,2-a]pyridin-2-yl)-N-methyl-4-[4-(trifluoromethyl)phenoxy]benzene-1-sulfonamide] | 62.4 | –
CNS(=O)(=O)c1ccc(Oc2ccc(SC(F)(F)F)cc2)c(-c2cnn3c2CCC3)c1 [3-1, 3-(5,6-Dihydro-4H-pyrrolo[1,2-b]pyrazol-3-yl)-N-methyl-4-(4-((trifluoromethyl)thio)phenoxy)benzenesulfonamide] | 447 | –
